# According to ChEMBL document CHEMBL1140511, “Synthesis of (aryloxyacetylamino)-isonicotinic/nicotinic acid analogues as potent hypoxia-inducible factor (HIF)-1alpha inhibitors” (Bioorg Med Chem Lett, 2007):
# The source made the active and inactive calls. No cut-off for these calls is given here.
# What was measured:
# [1] = biological target: T1, Hypoxia-inducible factor 1-alpha (Homo sapiens, UniProt Q16665); assay: Inhibition of hypoxia induced HIF1-alpha transcriptional activity in human AGS cells by reporter gene assay; assay type: cell-based
# [2] = biological target: T1, Hypoxia-inducible factor 1-alpha; assay: Inhibition of hypoxia induced HIF1-alpha transcriptional activity in human Sk-Hep1 cells by reporter gene assay; assay type: cell-based
# [3] = biological target: T1, Hypoxia-inducible factor 1-alpha; assay: Inhibition of hypoxia induced HIF1-alpha transcriptional activity in human Hep3B cells by reporter gene assay; assay type: cell-based; details: hep 3b2
# [4] = Suppression of hypoxia induced GAPDH mRNA expression in human Hep3B cells by RT-PCR; assay type: functional, cell-based; details: Hep 3B2
# [5] = Suppression of hypoxia induced HIF1-alpha mRNA expression in human Hep3B cells by RT-PCR; assay type: functional, cell-based; details: Hep 3B2
# [6] = Suppression of hypoxia induced EPO expression in human Hep3B cells by RT-PCR; assay type: functional, cell-based; details: Hep 3B2
# [7] = Suppression of hypoxia induced VEGF expression in human Hep3B cells by RT-PCR; assay type: functional, cell-based; details: Hep 3B2
# T1 sequence (Q16665 whole entry): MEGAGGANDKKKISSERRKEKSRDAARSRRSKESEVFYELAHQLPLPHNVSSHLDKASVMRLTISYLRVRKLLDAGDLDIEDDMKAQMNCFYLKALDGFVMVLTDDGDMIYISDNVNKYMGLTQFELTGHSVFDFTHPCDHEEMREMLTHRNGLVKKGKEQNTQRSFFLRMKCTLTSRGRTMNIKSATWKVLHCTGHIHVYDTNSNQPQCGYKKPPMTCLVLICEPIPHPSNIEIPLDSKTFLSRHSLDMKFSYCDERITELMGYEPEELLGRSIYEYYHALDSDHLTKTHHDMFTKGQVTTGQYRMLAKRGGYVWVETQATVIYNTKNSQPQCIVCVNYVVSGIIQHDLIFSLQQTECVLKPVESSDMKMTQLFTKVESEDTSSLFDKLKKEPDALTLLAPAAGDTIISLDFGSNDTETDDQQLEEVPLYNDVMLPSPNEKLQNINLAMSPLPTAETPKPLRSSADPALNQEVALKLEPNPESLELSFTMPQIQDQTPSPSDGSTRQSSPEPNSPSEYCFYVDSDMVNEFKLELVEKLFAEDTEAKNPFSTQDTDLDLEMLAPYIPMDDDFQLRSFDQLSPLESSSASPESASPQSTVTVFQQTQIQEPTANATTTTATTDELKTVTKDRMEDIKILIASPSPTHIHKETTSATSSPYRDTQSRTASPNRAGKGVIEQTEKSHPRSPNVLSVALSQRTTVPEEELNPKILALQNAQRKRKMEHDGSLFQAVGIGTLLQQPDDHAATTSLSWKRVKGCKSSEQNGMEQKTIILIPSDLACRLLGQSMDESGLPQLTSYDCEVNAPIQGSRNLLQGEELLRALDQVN
SMILES,IC50 [1] [nM],IC50 [2] [nM],IC50 [3] [µM],Activity [4],Activity [5],Activity [6],Activity [7]
O=C(COc1ccc(C23CC4CC(CC(C4)C2)C3)cc1)Nc1cc(C(=O)Nc2ccc(Cl)cc2)ccn1,18600,2500,> 30,,,,
O=C(COc1ccc(C23CC4CC(CC(C4)C2)C3)cc1)Nc1cncc(C(=O)O)c1,> 30000,> 30000,> 30,,,,
O=C(COc1ccc(C23CC4CC(CC(C4)C2)C3)cc1)Nc1cncc(C(=O)NCCCn2ccnc2)c1,> 10000,1900,> 10,,,,
O=C(COc1ccc(C23CC4CC(CC(C4)C2)C3)cc1)Nc1cc(C(=O)NCCCn2ccnc2)ccn1,11000,900,11.2,,,,
COC(=O)c1cncc(NC(=O)COc2ccc(C34CC5CC(CC(C5)C3)C4)cc2)c1,5000,> 30000,5.9,,,,
COC(=O)c1ccnc(NC(=O)COc2ccc(C34CC5CC(CC(C5)C3)C4)cc2)c1,2000,1030,1.2,,,,
COC(=O)c1cccc(NC(=O)COc2ccc(C34CC5CC(CC(C5)C3)C4)cc2)c1,700,,2.6,,,,
O=C(COc1ccc(C23CC4CC(CC(C4)C2)C3)cc1)Nc1cc(C(=O)O)ccn1,800,2000,1,,,,
O=C(COc1ccc(C23CC4CC(CC(C4)C2)C3)cc1)Nc1cncc(C(=O)NCCc2ccncc2)c1,1300,> 30000,> 30,,,,
NC(=O)c1ccnc(NC(=O)COc2ccc(C34CC5CC(CC(C5)C3)C4)cc2)c1,1800,600,3.1,inactive,inactive,Dose-dependent effect,Dose-dependent effect
O=C(COc1ccc(C23CC4CC(CC(C4)C2)C3)cc1)Nc1cccc(C(=O)O)c1,350,,0.4,,,,
NC(=O)c1cncc(NC(=O)COc2ccc(C34CC5CC(CC(C5)C3)C4)cc2)c1,900,11900,> 10,,,,
O=C(COc1ccc(C23CC4CC(CC(C4)C2)C3)cc1)Nc1cc(C(=O)NCCc2ccncc2)ccn1,5200,3400,3.4,,,,
O=C(COc1ccc(C23CC4CC(CC(C4)C2)C3)cc1)Nc1cncc(C(=O)NCc2ccco2)c1,30000,4100,> 30,,,,
O=C(COc1ccc(C23CC4CC(CC(C4)C2)C3)cc1)Nc1cc(C(=O)NCc2ccco2)ccn1,> 30000,> 30000,> 30,,,,
